Test [1] deals with T1, Transient receptor potential cation channel subfamily V member 1 (Rattus norvegicus, UniProt O35433). Nature of the test: Antagonist activity at rat TRPV1 receptor expressed in CHO cells assessed as decrease in capsaicin-induced intracellular 45Ca2+ uptake after 1 hr by […] analysis. Type of test: functional, cell-based.
Test [2] has as its target T1, Transient receptor potential cation channel subfamily V member 1. Briefly: Displacement of [3H]RTX from rat TRPV1 receptor expressed in CHO cells after 60 mins by scintillation counting. Type of test: cell-based.
The target in test [3] is Transient receptor potential cation channel subfamily V member 1 (Rattus norvegicus) (UniProt O35433). Nature of the test: Antagonist activity at rat TRPV1 receptor expressed in CHO cells assessed as decrease in capsaicin-induced intracellular 45Ca2+ uptake after 1 hr by […] analysis relative to untreated control. Type of test: functional, cell-based.
Transient receptor potential cation channel subfamily V member 1 (Rattus norvegicus), sequence (O35433 whole entry): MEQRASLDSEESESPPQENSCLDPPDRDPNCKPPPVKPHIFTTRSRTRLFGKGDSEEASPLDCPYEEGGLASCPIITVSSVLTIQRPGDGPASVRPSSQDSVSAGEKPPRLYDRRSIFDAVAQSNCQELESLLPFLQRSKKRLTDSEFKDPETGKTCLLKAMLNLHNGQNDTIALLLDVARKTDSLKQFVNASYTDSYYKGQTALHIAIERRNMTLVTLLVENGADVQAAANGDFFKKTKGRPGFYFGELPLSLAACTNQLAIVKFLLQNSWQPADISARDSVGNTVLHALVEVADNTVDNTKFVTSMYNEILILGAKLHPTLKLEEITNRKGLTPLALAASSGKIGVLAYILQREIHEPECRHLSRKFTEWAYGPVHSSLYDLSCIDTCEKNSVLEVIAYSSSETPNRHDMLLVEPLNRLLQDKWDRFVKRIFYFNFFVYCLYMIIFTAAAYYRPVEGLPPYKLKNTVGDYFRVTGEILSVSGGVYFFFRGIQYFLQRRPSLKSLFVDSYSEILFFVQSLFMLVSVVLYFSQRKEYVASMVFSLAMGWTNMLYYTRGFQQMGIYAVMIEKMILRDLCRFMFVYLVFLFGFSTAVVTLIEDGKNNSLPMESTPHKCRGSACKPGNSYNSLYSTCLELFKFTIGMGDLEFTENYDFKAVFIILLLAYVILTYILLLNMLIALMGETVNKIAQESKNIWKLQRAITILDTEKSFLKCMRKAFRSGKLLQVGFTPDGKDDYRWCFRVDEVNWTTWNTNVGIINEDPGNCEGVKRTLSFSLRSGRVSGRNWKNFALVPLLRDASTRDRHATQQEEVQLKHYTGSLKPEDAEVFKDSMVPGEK
Test [4] addresses T2, Transient receptor potential cation channel subfamily V member 1 (Homo sapiens, UniProt Q8NER1). Nature of the test: Displacement of [3H]RTX from human TRPV1 receptor expressed in CHO cells after 60 mins by scintillation counting. Type of test: cell-based. In general terms: Displacement assays read how much labelled ligand stays bound in the presence of the test substance.

Test [5] deals with T2, Transient receptor potential cation channel subfamily V member 1. Nature of the test: Antagonist activity at human TRPV1 receptor expressed in CHO cells assessed as decrease in capsaicin-induced intracellular 45Ca2+ uptake after 1 hr by […] analysis. Type of test: functional, cell-based.
Test [6] has the same target. Briefly: Antagonist activity at human TRPV1 receptor expressed in CHO cells assessed as decrease in pH-induced intracellular 45Ca2+ uptake after 1 hr by […] analysis. Type of test: functional, cell-based.

Here are results for 10 compounds from ChEMBL document CHEMBL2040748, “N-4-t-Butylbenzyl 2-(4-methylsulfonylaminophenyl) propanamide TRPV1 antagonists: Structure-activity relationships in the A-region” (Bioorg Med Chem, 2012).

The Ki is the equilibrium dissociation constant of an inhibitor or competing ligand from its target.

T2 sequence (Q8NER1 whole entry): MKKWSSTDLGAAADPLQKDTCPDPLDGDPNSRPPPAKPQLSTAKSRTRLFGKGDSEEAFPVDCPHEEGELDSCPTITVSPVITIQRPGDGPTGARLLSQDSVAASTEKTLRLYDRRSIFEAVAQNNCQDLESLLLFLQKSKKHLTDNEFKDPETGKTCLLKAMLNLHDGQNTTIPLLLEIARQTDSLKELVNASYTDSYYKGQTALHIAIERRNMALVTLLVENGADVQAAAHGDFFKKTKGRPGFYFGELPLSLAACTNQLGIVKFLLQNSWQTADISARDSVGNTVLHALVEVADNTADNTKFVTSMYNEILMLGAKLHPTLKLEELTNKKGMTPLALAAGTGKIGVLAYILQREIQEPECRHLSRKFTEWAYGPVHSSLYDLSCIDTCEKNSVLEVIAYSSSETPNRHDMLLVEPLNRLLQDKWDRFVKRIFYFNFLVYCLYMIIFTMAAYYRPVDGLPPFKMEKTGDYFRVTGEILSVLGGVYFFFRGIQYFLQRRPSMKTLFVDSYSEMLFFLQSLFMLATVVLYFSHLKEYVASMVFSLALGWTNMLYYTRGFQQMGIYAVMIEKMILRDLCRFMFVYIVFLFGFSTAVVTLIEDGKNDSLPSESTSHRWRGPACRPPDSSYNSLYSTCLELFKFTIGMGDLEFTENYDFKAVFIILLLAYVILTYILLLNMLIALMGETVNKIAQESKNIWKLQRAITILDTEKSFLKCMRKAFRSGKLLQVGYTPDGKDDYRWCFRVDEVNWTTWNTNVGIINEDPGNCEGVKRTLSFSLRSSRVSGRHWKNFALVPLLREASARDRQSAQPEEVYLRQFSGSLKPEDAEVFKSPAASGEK
T1 sequence (O35433 whole entry): as the sequence (O35433 whole entry) above

Regarding `Cc1cc(C(C)C(=O)NCc2ccc(C(C)(C)C)cc2)ccc1NS(C)(=O)=O` (centres undefined), the Ki turned out to be 18.9 nM in test [1] and 32.8 nM in test [2] (read-out: Ki).
With `COc1cc(CNC(=S)NCc2ccc(C(C)(C)C)cc2)ccc1NS(C)(=O)=O`, in test [3], the Efficacy came out at 84%.
Consider `CC(C(=O)NCc1ccc(C(C)(C)C)cc1)c1ccc(NS(C)(=O)=O)c(N2CCOCC2)c1` (centres undefined), for which the Ki result in test [2] (cho) is given as “Active”.
For `CC(C(=O)NCc1ccc(C(C)(C)C)cc1)c1ccc(NS(C)(=O)=O)c(F)c1` (racemic), the Ki in test [4] came out at 89 nM; in test [5], 5.1 nM; in test [6] it was 12.7 nM; in test [1] it was 7.6 nM; in test [2] (read-out: Ki), 46.2 nM.
Turning to `CC(C(=O)NCc1ccc(C(C)(C)C)cc1)c1ccc(NS(C)(=O)=O)c(C(=O)NCc2ccccc2)c1` (centres undefined), the Efficacy in test [3] was found to be 23%.
Regarding `C[C@@H](C(=O)NCc1ccc(C(C)(C)C)cc1)c1ccc(NS(C)(=O)=O)c(F)c1`, the Ki in test [4] worked out at 2590 nM; in test [5] it was 217 nM; in test [6], 440 nM; in test [1] it was 186 nM; in test [2] (read-out: Ki) it was 750 nM.
`CC(C(=O)NCc1ccc(C(C)(C)C)cc1)c1ccc(NS(C)(=O)=O)c(N2CCN(C(=O)OC(C)(C)C)CC2)c1` (centres undefined): the Efficacy in test [3] amounted to 13%. Moreover, the Ki in test [2] (read-out: Ki) was found to be 7000 nM.
On to `CC(C(=O)NCc1ccc(C(C)(C)C)cc1)c1ccc(NS(C)(=O)=O)c(C(=O)OC(C)(C)C)c1` (centres undefined), for which the Efficacy in test [3] came to 16%.
With `CC(C(=O)NCc1ccc(C(C)(C)C)cc1)c1ccc(NS(C)(=O)=O)c(N2CCCCC2)c1` (centres undefined), the Ki result in test [2] (cho) is on record as “Active”.
`C[C@H](C(=O)NCc1ccc(C(C)(C)C)cc1)c1ccc(NS(C)(=O)=O)c(F)c1`: the Ki in test [4] amounted to 15.8 nM; in test [5], 0.49 nM; in test [6], 8.3 nM; in test [1], 4.16 nM; in test [2] (read-out: Ki), 24.4 nM.
